The series relates to CCRIS mutagenicity, Ames/micronucleus/aberration tests. Nature of the series: CCRIS mutagenicity studies. Particulars: Test System: AMES SALMONELLA TYPHIMURIUM, Metabolic Activation: RAT, LIVER, S-9, AROCLOR 1254, Method: STANDARD PLATE.

The source made the active and inactive calls. No rule for the calls is given here.

For `C=CC(=O)OCC` (tested in a mixture with another compound), the mutagenic call reads like this: (Strain/Indicator: TA100) “active; positive”; (Strain/Indicator: TA1535) “active; positive”; (Strain/Indicator: TA1538) “inactive; negative”.

These data come from PubChem BioAssay AID1259407 (Chemical Carcinogenesis Research Information System (CCRIS), 2018).
